Data on three molecules can be found in patent US20110071163A1, “USE OF AN OPIOID RECEPTOR ANTAGONIST FOR THE TREATMENT OR PREVENTION OF GASTROINTESTINAL TRACT DISORDERS” (ADOLOR CORPORATION, priority 2009, published 2011).

Values joined by “and” are separate entries in the source; they are usually repeats but may differ in a detail not shown here. Equal values may be shown once. “Also recorded” adds a separate entry of the source. Read-outs that look alike come from different tables or passages of the source.

For data set [1] the following is noted: 0.5 mg BID, patients with OIC or OBD, Phase 2 (Webster et al. 2008), cited from earlier work.
The nature of data set [2]: Plasma protein binding (human). It is filed as in vitro ADME. The note with it: read-out: Plasma protein binding (% free drug).
The target of another data set is T1, μ-opioid receptor (Homo sapiens, UniProt P35372).
T1 construct: expressed in transfected cells; host or cells: CHO cells (membranes)
T1 sequence (P35372 whole entry): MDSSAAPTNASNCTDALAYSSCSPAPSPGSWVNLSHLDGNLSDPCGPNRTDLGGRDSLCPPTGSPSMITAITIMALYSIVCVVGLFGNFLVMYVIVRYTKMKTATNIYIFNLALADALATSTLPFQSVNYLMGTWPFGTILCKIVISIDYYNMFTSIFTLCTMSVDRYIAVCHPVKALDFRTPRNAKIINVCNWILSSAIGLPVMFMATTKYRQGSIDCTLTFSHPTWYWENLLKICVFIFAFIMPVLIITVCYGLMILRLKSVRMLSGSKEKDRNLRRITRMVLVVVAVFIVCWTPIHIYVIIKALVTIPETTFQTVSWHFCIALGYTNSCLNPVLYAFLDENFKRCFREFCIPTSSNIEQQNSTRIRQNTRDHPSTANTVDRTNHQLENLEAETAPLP
Put plainly: Calculated effective dose and pharmacokinetic model of Compound I for treating OIC or OBD. Particulars: humans. The source says: (§1) There are a number of approaches to determining the effective dose of Compound I for treating OIC or OBD. Four are outlined below. Depending on the approach, a number of basic assumptions were made in calculating the effective dose of Compound I for treating OIC or OBD: (i) The μ-opioid receptor is the primary target of Compound I to produce efficacy in the treatment of OIC or OBD, although other opioid receptors may also play a role. (ii) The systemic presence of Compound I in the periphery (but not in the CNS) is sufficient to produce robust efficacy in treating OIC or OBD. Thus, calculations were based on systemic plasma concentrations as opposed to possible topical or local effects in gut tissues, though these may also contribute to efficacy. (iii) The pharmacokinetic properties, specifically the oral bioavailability, of Compound I will be roughly similar in healthy volunteers and in patients with OIC or OBD.
(§2) The first approach was a calculation based on comparison of pharmacokinetic and pharmacological data for the highly peripheralized opioid receptor antagonist alvimopan. […] Webster et al. (2008) Pain 137:428-440.
A second approach was a calculation based on the potency (Ki) of Compound I as an antagonist for the […] receptor.
A third approach was to generate a pharmacokinetic model for Compound I at low doses. This was accomplished by assuming a linear relationship between dose and all parameters of the plasma time course for the 1 mg dose of Compound I, and extrapolating these to lower doses.

Data set [3] addresses T2, cloned human μ-opioid receptors (Homo sapiens, UniProt P35372).
T2 construct: expressed in transfected cells; host or cells: CHO cells (membranes)
Briefly: In vitro receptor binding in CHO cell membranes. Particulars: CHO cell membranes expressing cloned human μ-opioid receptors.

The subject of a further data set is opioid receptors. Put plainly: Reversal of morphine-induced inhibition of gastrointestinal transit of charcoal meal in mice. It is filed as in vivo. The note with it: Compound I oral dose. Here is the method: Mice were either dosed with 10 μg/kg morphine intracerebroventricularly or with 1 mg/kg morphine subcutaneously. The degree of gastrointestinal transit of charcoal meal in the mice was measured in the absence of Compound I and in the presence of varying oral doses of Compound I in order to determine the ability of the compound to reverse the inhibition of gastrointestinal (GI) transit induced by morphine. The minimum effective dose of Compound I required to reverse GI transit inhibition in mice dosed with morphine directly into the CNS was determined to be about 3.0 mg/kg oral dose. (FIG. 2) In contrast, the effective dose of Compound I required to reverse GI transit inhibition in mice dosed with morphine systemically was determined to be about 0.16 mg/kg oral dose.

Data set [4] can be described thus: Phase I multiple ascending dose clinical study in subjects with OIC. It is filed as in vivo, human. The source says: The objective of the Phase I multiple ascending dose clinical study was to evaluate the safety, tolerability, pharmacokinetics, and clinical effect of multiple ascending doses of Compound I administered twice daily (BID) to subjects who have opioid induced constipation (OIC) as a result of chronic opioid therapy for persistent noncancer pain. The first part of the study was a randomized, double blind, placebo controlled, multiple ascending dose study during which subjects took 4 oral doses of study medication over 2 days while confined to the study unit. Each of the 0.10 mg, 0.25 mg, 0.35 mg, 0.50 mg […] BID dose cohorts included 4 subjects, and randomization was unbalanced, with a 3:1 ratio of Compound I treatment (n=3) to placebo treatment (n=1). The 0.75 mg BID cohort included only 2 subjects. Assessments of clinical effect included the following measures, which were assessed starting immediately after the first dose of study medication through discharge on day 3: (i) time to first bowel movement after the first dose of study medication; (ii) number of bowel movements; and (iii) bowel movement Comfort Scores, stool weight, and stool consistency as measured by the Bristol Stool Scale for each bowel movement that occurs while the subject was confined to the study unit.
For pharmacokinetic analyses, blood samples were collected from each subject on day 1 at approximately 1 hour before the first dose of study medication (time 0) and at each of the following times after the first dose of study medication: 15 min, 30 min, 60 min, 90 min, 2 h, 3 h, 4 h, 6 h, 8 h, 10 h, and 12 h. FIGS. 7A, 7B and 7C indicate the plasma levels of Compound I obtained after the first dose over the dosing interval of 12 h and for each of the 5 doses tested (0.10 mg, 0.25 mg, 0.35 mg, 0.50 mg and 0.75 mg BID).

The test system of data set [5] is P-glycoprotein (P-gp) transporter. Briefly: Partitioning in plasma and brain of wild-type and P-glycoprotein knockout mice. It is filed as in vivo. The method, then: Wild-type or P-glycoprotein (P-gp) knockout mice were dosed with 2.5 mg/kg of Compound I intravenously. The mice were sacrificed and the amounts of Compound I in the blood and in the brain were assayed using standard techniques. […] Moreover, blood-brain barrier penetration of Compound I increased 7- to 19-fold in knockout mice that were deficient in the P-gp transporter.

Data set [6] in a line: Oral bioavailability in rat. It is filed as in vivo.
Data set [7] concerns opioid receptors in the CNS. Briefly: Phase 1 pharmacodynamic markers of central opioid receptor antagonism (morphine-induced miosis, ACTH, cortisol). Type of data set: in vivo, human. Particulars: humans. Here is the method:
Determination of the lowest dose of Compound I that produces antagonism of opioid receptors in the CNS was addressed directly by examining the reported effect of Compound I on pharmacodynamic markers of central opioid receptor antagonism that were measured in the single and multiple dose Phase 1 clinical studies, i.e., the reversal of morphine-induced miosis (the effect on pupil diameter) and increases in adrenocorticotropic hormone (ACTH) and cortisol. The observed whole body dose of Compound I associated with a threshold reversal of morphine-induced miosis was 10 mg. Likewise, the observed whole body dose of Compound I associated with threshold increases in ACTH and cortisol was between 10 and 25 mg. A conservative estimate of the whole body dose for central opioid receptor antagonism was then determined by reducing these observed threshold doses by a half-log factor (i.e., 3-fold). Thus, the minimum doses of Compound I associated with pharmacologically relevant antagonism of opioid receptors in the CNS were conservatively estimated to be in the range of from about 3 mg to about 10 mg.

Data set [8] is described as follows: Phase 1 oral pharmacokinetics of Compound I in healthy subjects. It is filed as in vivo, human. Particulars: for Mean free Cmax plasma level: 1 mg single oral dose, healthy subjects. The method, then:
as §2
If there is a potential for a degree of drug accumulation upon repeated dosing regimens, the doses associated with efficacy for treating OIC or OBD may be appreciably lower than the doses calculated above, i.e., as low as 0.01 to 0.02 mg whole body dose QD or BID (for a human weighing approximately 70 kg).

Data set [9] deals with opioid receptors in the central nervous system. Briefly: Rat formalin test: reversal of morphine analgesia. Type of data set: in vivo. The note with it: for Potency of naltrexone relative to Compound I in reversing the effects of morphine in the CNS: morphine 10 mg/kg s.c., naltrexone s.c., Compound I oral. Here is the method:
Rats were injected with the irritant formalin and with 10 mg/kg of morphine subcutaneously. The amount of analgesia was determined by the reduction in the number of times the rat licked or paid attention to the site of formalin injection (events). Rats were dosed either with 0.02 mg/kg naltrexone (subcutaneous dose) or 1, 3 or 10 mg/kg Compound I (oral dose) to determine the ability of the compounds to reverse the analgesic effect of morphine. […] The reversal of morphine-induced analgesia by opioid receptor antagonists in the formalin test is believed to be primarily a centrally-mediated effect.

A short description of data set [10]: Plasma protein binding (mouse). Type of data set: in vitro ADME. The note with it: read-out: Plasma protein binding (% free drug).
The nature of data set [11]: Oral bioavailability in cynomologus monkey. The note with it: in vivo, 0.1 mg/kg to 0.5 mg/kg.
Excerpt: as §1

Setting [12] is: 0.10 mg and 0.25 mg doses, preliminary.

T2 sequence (P35372 whole entry): as above

With `C[C@H]1CN(C[C@H](Cc2ccccc2)C(=O)NCC(=O)O)CC[C@@]1(C)c1cccc(O)c1` [Alvimopan, alvimopan], the “Mean free Cmax plasma level” value in data set [1] is recorded as 0.1^1 ng/ml; in [1] (listed as alvimopan) it was “approximately 0.1 ng/ml”. Further, the fraction unbound in data set [2] worked out at 0.203.
With `COc1cc(CNCCC2CCOCC2)ccc1Oc1cnc(C(N)=O)cn1` [Compound I, 5-(2-methoxy-4-{[2-(tetrahydro-pyran-4-yl)-ethylamino]-methyl}-phenoxy)-pyrazine-2-carboxamide], on μ-opioid receptor (QD or BID, multiple rationales), the “Whole body dose effective in treating OIC or OBD without antagonizing CNS μ-opioid receptors (calculated)” value is reported as “approximately 0.1 mg/day”. Moreover, the “Whole body dose needed to achieve 0.36 nM of free drug (second approach)” value at μ-opioid receptor (linear extrapolation) was 0.12 mg. Also, at μ-opioid receptor (linear extrapolation below 1 mg), the “Dose needed to produce a free drug plasma Cmax of 0.1 ng/ml” value is reported as 0.087 mg. The Ki (commonly the equilibrium dissociation constant of an inhibitor or competing ligand from its target) in data set [3] turned out to be 0.36 nM. Moreover, the “Minimum effective dose to reverse GI transit inhibition” value in the data set on opioid receptors (morphine 10 μg/kg intracerebroventricularly (direct CNS)) is “about 3.0 mg/kg”. Further, the “Effective dose to reverse GI transit inhibition” value in the data set on opioid receptors (morphine 1 mg/kg subcutaneously (systemic)) is reported as “about 0.16 mg/kg”. In addition, the “Amount effective for treating OIC or OBD confirmed in Phase I clinical studies” value in [4] is “approximately 0.1 mg/day”. In addition, in data set [4] (setting [12]), the Pharmacological effect entry is recorded as “produced the desired pharmacological effects”. In addition, the Tolerability result in data set [4] (setting [12]) is given as “well-tolerated; also recorded: well tolerated”. In data set [5] (concluded from knockout mice), the P-gp transport result was “substrate for the efflux transporter P-gp”. Moreover, in data set [5] (wild type mice, 2.5 mg/kg intravenously), the “Compound I in blood plasma relative to brain” value came to 17 times. The Oral bioavailability entry in [6] is “high oral bioavailability”. For the same molecule, the “Whole body dose associated with threshold reversal of morphine-induced miosis” value in data set [7] was 10 mg. Further, the “Mean free Cmax plasma level” value in [8] (converted with MW 386.4 g/mol) is 2.98 nM; in data set [8] (free drug estimated with mouse plasma protein binding), 1.15 ng/ml and 1.15^2 ng/ml. Further, the half-life (as a rule, how long it takes for the measured level to halve) in [8] (human, plasma, oral, humans, doses of 1-3 mg) is roughly 12 h. In data set [8] (humans, dose range 1 mg to 100 mg), the “Oral pharmacokinetics versus dose” value was “highly consistent and dose-proportional”. In [9], the “Times less potent than naltrexone as antagonist of opioid receptors in the central nervous system” value is on record as “at least 100 times”. Also, the fraction unbound in [10] is 0.64; in data set [2] it was 0.738. Besides, in [11], the bioavailability (usually the share of a dose that reaches the circulation, judged against a reference dose that is usually intravenous) was roughly 100%.
Take `O=C1CC[C@@]2(O)[C@H]3Cc4ccc(O)c5c4[C@@]2(CCN3CC2CC2)[C@H]1O5` [naltrexone]: the entries for the “Potency of naltrexone relative to Compound I in reversing the effects of morphine in the CNS” value in data set [9] and in [9] (listed as Naltrexone) were “more than 100 times” and “approximately 100 times”, respectively.
